The values that follow come from patent US20240228468A1, “N-(6-((OCTAHYDROCYCLOPENTA[C]PYRROL-5-YI)AMINO)PYRIDAZIN-3-YL)PHENYL)CARBOXAMIDE AND (6- ((OCTAHYDROCYCLOPENTA[C]PYRROL-5-YL)AMINO)PYRIDAZIN-3-YL)BENZAMIDE DERIVATIVES AS MACHR M4 ANTAGONISTS FOR THE TREATMENT OF NEURODEGENERATIVE DISORDERS” (Vanderbilt University, priority 2021, published 2024).

Like-named read-outs stand apart in the source and are kept apart here.

For this assay, the target named is T1, Human M4 (Homo sapiens, UniProt P08173).
T1 construct: expressed in transfected cells; host or cells: CHO-K1 (ATCC), co-transfected with chimeric G protein Gqi5
T1 sequence (P08173 1-479): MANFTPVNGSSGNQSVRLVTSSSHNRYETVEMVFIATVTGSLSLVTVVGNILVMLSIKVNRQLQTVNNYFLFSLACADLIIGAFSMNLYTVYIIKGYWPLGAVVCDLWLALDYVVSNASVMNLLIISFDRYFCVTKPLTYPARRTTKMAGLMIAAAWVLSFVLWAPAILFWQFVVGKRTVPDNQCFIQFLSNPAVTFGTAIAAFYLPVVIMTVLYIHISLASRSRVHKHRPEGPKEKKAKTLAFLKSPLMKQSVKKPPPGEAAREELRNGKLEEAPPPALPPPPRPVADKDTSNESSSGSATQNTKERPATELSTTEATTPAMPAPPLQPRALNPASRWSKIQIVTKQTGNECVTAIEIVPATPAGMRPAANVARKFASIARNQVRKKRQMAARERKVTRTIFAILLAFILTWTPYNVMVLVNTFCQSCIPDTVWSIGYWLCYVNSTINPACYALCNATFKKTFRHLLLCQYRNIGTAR
Put plainly: mAChR M4 cell-based functional assay (calcium flux, antagonism of EC80 acetylcholine response). The following applies: for IC50: concentration-dependent decrease of the response elicited by an EC80 concentration of acetylcholine. The method, boiled down: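 CHO-K1 cells stably expressing human M4 with chimeric Gqi5, Fluo-4 loaded; calcium flux read on FDSS. Compound (10-point, 1:3 series) added first, then EC20 acetylcholine at 143 s and EC80 at 268 s. IC50 from concentration-dependent decrease of EC80 response, four-parameter logistic fit.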
A general note: Calcium flux is commonly read through the fluorescence of an indicator in the cells.

The mark [1] stands for this setting: M4/Gqi5/CHO-K1 cells, % ACh maximum at 30 μM, read-out: Human M4 Emin (% ACh maximum at 30 μM).
Setting [2] is: CHO-K1, read-out: Human M4 Emin (% ACh maximum at 30 μM).

Usually IC50 stands for the concentration at which inhibition is half-maximal. For `O=C(c1cc(F)c(F)c(-c2ccc(N[C@H]3C[C@@H]4CN(CC5CCOCC5)C[C@@H]4C3)nn2)c1)N1CC(F)(F)C1` [Compound A20, (3,4-difluoro-5-(6-(((3aR,5s,6aS)-2-((tetrahydro-2H-pyran-4-yl)methyl)octahydrocyclopenta[c]pyrrol-5-yl)amino)pyridazin-3-yl)phenyl)(3,3-difluoroazetidin-1-yl)methanone], the remaining activity at 30 µM under setting [1] amounted to 4%. Moreover, the IC50 (M4/Gqi5/CHO-K1 cells) came to 100 nM.

Regarding “N-methyl-3-(6-(((3aR,5s,6aS)-2-(((S)- tetrahydro-2H-pyran-2-yl)methyl- d2)octahydrocyclopenta[c]pyrrol-5- yl)amino)pyridazin-3-yl)benzamide [Compound A80]”, the “Human M4 Emin (% ACh maximum at 30 μM)” value (M4/Gqi5/CHO-K1 cells, % ACh maximum at 30 μM) is 4%. Moreover, the IC50 (M4/Gqi5/CHO-K1 cells) was determined as 1.4 nM.

`O=C(NC1CC(F)(F)C1)c1cc(F)c(F)c(-c2ccc(N[C@H]3C[C@@H]4CN(CC5CCOCC5)C[C@@H]4C3)nn2)c1` [Compound A19, N-(3,3-difluorocyclobutyl)-3,4-difluoro-5-(6-(((3aR,5s,6aS)-2-((tetrahydro-2H-pyran-4-yl)methyl)octahydrocyclopenta[c]pyrrol-5-yl)amino)pyridazin-3-yl)benzamide]: the remaining activity at 30 µM under setting [1] amounted to 4%. The IC50 (M4/Gqi5/CHO-K1 cells) came out at 82 nM.

For the compound `O=C(c1ccc(-c2ccc(N[C@H]3C[C@@H]4CN(CC5CCOCC5)C[C@@H]4C3)nn2)cc1)N1CCCCC1` [Compound A22, piperidin-1-yl(4-(6-(((3aR,5s,6aS)-2-((tetrahydro-2H-pyran-4-yl)methyl)octahydrocyclopenta[c]pyrrol-5-yl)amino)pyridazin-3-yl)phenyl)methanone], the remaining activity at 30 µM under setting [1] was found to be 4%. Moreover, the concentration for half-maximal inhibition (IC50) (M4/Gqi5/CHO-K1 cells) was 21 nM.

For the compound `CCN(CC)C(=O)c1ccc(-c2ccc(N[C@H]3C[C@@H]4CN(CC5CCOCC5)C[C@@H]4C3)nn2)cc1` [Compound A24, N,N-diethyl-4-(6-(((3aR,5s,6aS)-2-((tetrahydro-2H-pyran-4-yl)methyl)octahydrocyclopenta[c]pyrrol-5-yl)amino)pyridazin-3-yl)benzamide], the remaining activity at 30 µM under setting [1] came out at 4%. The IC50 (M4/Gqi5/CHO-K1 cells) is 37 nM.

`O=C(Nc1cccc(-c2ccc(N[C@H]3C[C@@H]4CN(CC5CCOCC5)C[C@@H]4C3)nn2)c1)C1CC1` [Compound A30, N-(3-(6-(((3aR,5s,6aS)-2-((tetrahydro-2H-pyran-4-yl)methyl)octahydrocyclopenta[c]pyrrol-5-yl)amino)pyridazin-3-yl)phenyl)cyclopropanecarboxamide]: the remaining activity at 30 µM under setting [1] was 3%. For the setting “M4/Gqi5/CHO-K1 cells”, the IC50 is 13 nM.

On to `[2H]C([2H])(C1CCOCC1)N1C[C@H]2C[C@H](Nc3ccc(-c4cccc(C(=O)NC)c4)nn3)C[C@H]2C1` (single isomer, unassigned) [Compound A42], for which the remaining activity at 30 µM under setting [2] was determined as 14%. Besides, the IC50 (M4/Gqi5/CHO-K1 cells) was determined as 400 nM.

For the compound `[2H]C([2H])(C1CCOCC1)N1C[C@H]2C[C@H](Nc3ccc(-c4cccc(NC(=O)C5CC5)c4)nn3)C[C@H]2C1` [Compound A32, N-(3-(6-(((3aR,5s,6aS)-2-((tetrahydro-2H-pyran-4-yl)methyl-d2)octahydrocyclopenta[c]pyrrol-5-yl)amino)pyridazin-3-yl)phenyl)cyclopropanecarboxamide], under setting [1], the remaining activity at 30 µM stood at 3%. Moreover, for the setting “M4/Gqi5/CHO-K1 cells”, the IC50 was determined as 16 nM.

In the case of `O=C(Nc1cc(F)c(F)c(-c2ccc(N[C@H]3C[C@@H]4CN(CC5CCOCC5)C[C@@H]4C3)nn2)c1)C(F)F` [Compound A15, N-(3,4-Difluoro-5-(6-(((3aR,5s,6aS)-2-((tetrahydro-2H-pyran-4-yl)methyl)octahydrocyclopenta[c]pyrrol-5-yl)amino)pyridazin-3-yl)phenyl)-2,2-difluoroacetamide], the remaining activity at 30 µM under setting [2] was 4%. Further, where the note is “M4/Gqi5/CHO-K1 cells”, the IC50 is 15 nM.
